Measurements: US20090187040A1, “FENOFIBRIC ACID POLYMORPHS; METHODS OF MAKING; AND METHODS OF USE THEREOF” (priority 2008, published 2009)

Key:
[1] = Fenofibric acid polymorph slurry study (form by XRPD or Raman); assay type: physicochemical; conditions: for relative thermodynamic stability of the enantiotropically related forms: Form A versus Form B, by temperature
Procedure: Approximately 30-45 mg in combination of Form B and Form A are weighed to an 8-mL vial outfitted with a stir bar. Solvent (water, toluene, and 1:1 water/IPA, DCM or MeCN) in the amount of 1 mL is added. The samples are sealed with a Teflon cap and parafilm and then placed on a magnetic stirrer at room temperature or 45° C. An aliquot is then sampled after 7 days and 21 days for determination of form by XRPD or Raman (Table 7).

[2] = Grinding study of Form B in a ball mill (XRPD); assay type: physicochemical; conditions: ground for 30 seconds using a ball mill
Procedure: Approximately 50 mg of Form B is ground for 30 seconds using a ball mill and the resulting material is analyzed by XRPD.

Solubility in water = assay type: physicochemical; conditions: noted in lyophilization example
[3] = cited from earlier work

CC(C)(Oc1ccc(C(=O)c2ccc(Cl)cc2)cc1)C(=O)O [Form B, 2-[4-(4-chlorobenzoyl)phenoxy]-2-methyl-propanoic acid]
relative thermodynamic stability of the enantiotropically related forms [1]: more thermodynamically stable at lower temperatures (e.g., room temperature)
Form, 7 Days (XRPD/Raman) ([1]; slurry in DCM 1 mL, 45 °C): A + B
Form, 21 Days (XRPD/Raman) ([1]; slurry in DCM 1 mL, 45 °C): A + B
form observed after grinding (XRPD) [2]: Form A is observed

CC(C)(Oc1ccc(C(=O)c2ccc(Cl)cc2)cc1)C(=O)O [Form A, 2-[4-(4-chlorobenzoyl)phenoxy]-2-methyl-propanoic acid]
relative thermodynamic stability of the enantiotropically related forms [1]: more stable at elevated temperatures (e.g., above about 45° C.)
Form, 7 Days (XRPD/Raman) ([1]; slurry in DCM 1 mL, 45 °C): A + B
Form, 21 Days (XRPD/Raman) ([1]; slurry in DCM 1 mL, 45 °C): A + B
Form, 21 Days (XRPD/Raman) ([1]; slurry in Water 1 mL, RT): Diffuse
solubility in water (Solubility in water): limited solubility

CC(C)(Oc1ccc(C(=O)c2ccc(Cl)cc2)cc1)C(=O)O [Form A + B, 2-[4-(4-chlorobenzoyl)phenoxy]-2-methyl-propanoic acid]
Form, 21 Days (XRPD/Raman) ([1]; slurry in Toluene 1 mL, 45 °C): A + B
Form, 7 Days (XRPD/Raman) ([1]; slurry in Water 1 mL, RT): A + B

CC(C)OC(=O)C(C)(C)Oc1ccc(C(=O)c2ccc(Cl)cc2)cc1 [Fenofibrate, 2-[4-(4-chlorobenzoyl)phenoxy]-2-methyl-propanoic acid, 1-methylethyl ester]
effect on high-density lipoprotein (HDL) and apoproteins apoAI and apoAII ([3]; treatment with fenofibrate): results in increases

CC(C)(Oc1ccc(C(=O)c2ccc(Cl)cc2)cc1)C(=O)O [Fenofibric acid, 2-[4-(4-chlorobenzoyl)phenoxy]-2-methyl-propanoic acid]
effect on total cholesterol, LDL cholesterol, apolipoprotein B, total triglycerides and triglyceride rich lipoprotein (VLDL) ([3]; treated patients): produces reductions
